Among the data in BindingDB's records for doi:10.1016/s0891-0618(03)00032-2 (University of Michigan, 2003) are Ki values, retold here.

For one assay, the target named is Mu-type opioid receptor (Rattus norvegicus, UniProt P33535).
The target of assay [1] is Delta-type opioid receptor (Rattus norvegicus, UniProt P33533).
Assay [2] deals with Kappa-type opioid receptor (Rattus norvegicus, UniProt P34975).
In another assay the target is Nociceptin receptor (Rattus norvegicus, UniProt P35370).
Chain of Nociceptin receptor (P35370 whole entry): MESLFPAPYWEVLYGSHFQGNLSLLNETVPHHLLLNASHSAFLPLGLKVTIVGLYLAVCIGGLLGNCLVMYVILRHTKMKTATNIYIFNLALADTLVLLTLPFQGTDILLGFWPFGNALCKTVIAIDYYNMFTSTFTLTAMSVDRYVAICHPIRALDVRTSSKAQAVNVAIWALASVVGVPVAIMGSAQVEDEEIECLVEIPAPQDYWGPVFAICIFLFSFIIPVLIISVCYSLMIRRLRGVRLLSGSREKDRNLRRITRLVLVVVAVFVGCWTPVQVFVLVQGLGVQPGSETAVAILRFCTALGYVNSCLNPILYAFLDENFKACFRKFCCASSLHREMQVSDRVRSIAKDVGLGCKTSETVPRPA

Chain of Mu-type opioid receptor (P33535 whole entry): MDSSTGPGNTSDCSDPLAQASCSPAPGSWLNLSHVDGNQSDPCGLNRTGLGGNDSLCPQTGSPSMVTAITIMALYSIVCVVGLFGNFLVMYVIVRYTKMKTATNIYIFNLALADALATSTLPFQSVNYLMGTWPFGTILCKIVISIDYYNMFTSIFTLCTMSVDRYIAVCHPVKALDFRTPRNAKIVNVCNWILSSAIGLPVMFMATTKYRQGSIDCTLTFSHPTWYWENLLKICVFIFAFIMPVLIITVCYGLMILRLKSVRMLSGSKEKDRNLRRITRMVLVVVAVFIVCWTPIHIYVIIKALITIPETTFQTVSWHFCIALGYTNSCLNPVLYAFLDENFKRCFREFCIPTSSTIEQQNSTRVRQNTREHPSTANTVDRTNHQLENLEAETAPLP
Chain of Kappa-type opioid receptor (P34975 whole entry): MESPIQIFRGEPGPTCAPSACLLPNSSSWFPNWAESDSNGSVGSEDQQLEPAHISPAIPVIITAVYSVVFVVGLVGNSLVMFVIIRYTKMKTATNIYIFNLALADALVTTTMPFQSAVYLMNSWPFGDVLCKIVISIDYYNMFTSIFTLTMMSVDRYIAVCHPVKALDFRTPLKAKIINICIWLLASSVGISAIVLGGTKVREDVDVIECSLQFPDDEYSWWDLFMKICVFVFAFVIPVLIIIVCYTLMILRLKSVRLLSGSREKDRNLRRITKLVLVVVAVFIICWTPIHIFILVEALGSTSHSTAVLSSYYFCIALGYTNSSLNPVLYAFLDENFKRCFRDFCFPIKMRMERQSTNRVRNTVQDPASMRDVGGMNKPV
Chain of Delta-type opioid receptor (P33533 whole entry): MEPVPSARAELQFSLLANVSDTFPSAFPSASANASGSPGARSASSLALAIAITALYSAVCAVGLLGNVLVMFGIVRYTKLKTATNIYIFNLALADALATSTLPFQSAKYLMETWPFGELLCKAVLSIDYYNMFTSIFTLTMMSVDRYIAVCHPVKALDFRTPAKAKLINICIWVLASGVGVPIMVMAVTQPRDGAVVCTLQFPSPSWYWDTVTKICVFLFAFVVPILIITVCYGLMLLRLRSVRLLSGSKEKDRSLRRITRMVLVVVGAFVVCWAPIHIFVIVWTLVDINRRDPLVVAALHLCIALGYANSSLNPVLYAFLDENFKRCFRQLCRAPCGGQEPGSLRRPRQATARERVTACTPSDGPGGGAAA

Take “H-FSEFMRQYLVLSMQSSQRRRTLHQNGNV-NH2 [NSC_0]”: the Ki (on Mu-type opioid receptor; in assay [1]; in assay [2]; at Nociceptin receptor) was greater than 10 µM each time.

`CC(C)C[C@H](NC(=O)[C@H](CCCCN)NC(=O)[C@H](CCCN=C(N)N)NC(=O)[C@H](C)NC(=O)[C@H](CO)NC(=O)[C@H](CCCCN)NC(=O)[C@H](CCCN=C(N)N)NC(=O)[C@H](C)NC(=O)CNC(=O)[C@@H](NC(=O)[C@H](Cc1ccccc1)NC(=O)CNC(=O)CNC(=O)[C@@H](N)Cc1ccccc1)[C@@H](C)O)C(=O)N[C@@H](C)C(=O)N[C@@H](CC(N)=O)C(=O)N[C@@H](CCC(N)=O)C(=O)O` [OFQ 1-17]: the Ki (at Mu-type opioid receptor; in assay [1]; in assay [2]) was greater than 10 µM throughout.

For H-FSEFMRQYLVLSMQSSQ-OH [OFQ II 1-17], the Ki (on Mu-type opioid receptor; in assay [1]; in assay [2]; on Nociceptin receptor) was greater than 10 µM in each case.

For `CCC12CCN(CC3CC3)C(C(=O)c3ccc(O)cc31)C2C` (centres undefined) [EKC], the Ki is 0.00193 µM on Mu-type opioid receptor, 0.00246 µM in assay [1] and 0.00212 µM in assay [2].

The term Ki denotes the equilibrium dissociation constant of an inhibitor or competing ligand from its target. Read a low Ki as a stronger hold on the target.
